What was measured:
[1] = molecular target: T1, Glutamate receptor ionotropic, NMDA 2C (Rattus norvegicus, UniProt P35439+Q00961); assay: Compound was tested in vitro for inhibition of NMDA response at cloned NR1A/2C receptor expressed in Xenopus oocytes; format: cell-based, frog, Oocyte
Rattus norvegicus = assay: Compound was tested in vivo for potentiation of L-DOPA effect in 6-hydroxydopamine-lesioned rat when administered per orally; format: functional; settings: po, read-out: MED
[2] = molecular target: Glutamate NMDA receptor; Grin1/Grin2a (Rattus norvegicus, UniProt P35439+Q00959); assay: Compound was tested in vitro for inhibition of NMDA response at cloned NR1A/2A receptor expressed in Xenopus oocytes; format: cell-based, frog, Oocyte
Chain of Glutamate NMDA receptor; Grin1/Grin2a (Q00959 whole entry, looked up, other chains not shown): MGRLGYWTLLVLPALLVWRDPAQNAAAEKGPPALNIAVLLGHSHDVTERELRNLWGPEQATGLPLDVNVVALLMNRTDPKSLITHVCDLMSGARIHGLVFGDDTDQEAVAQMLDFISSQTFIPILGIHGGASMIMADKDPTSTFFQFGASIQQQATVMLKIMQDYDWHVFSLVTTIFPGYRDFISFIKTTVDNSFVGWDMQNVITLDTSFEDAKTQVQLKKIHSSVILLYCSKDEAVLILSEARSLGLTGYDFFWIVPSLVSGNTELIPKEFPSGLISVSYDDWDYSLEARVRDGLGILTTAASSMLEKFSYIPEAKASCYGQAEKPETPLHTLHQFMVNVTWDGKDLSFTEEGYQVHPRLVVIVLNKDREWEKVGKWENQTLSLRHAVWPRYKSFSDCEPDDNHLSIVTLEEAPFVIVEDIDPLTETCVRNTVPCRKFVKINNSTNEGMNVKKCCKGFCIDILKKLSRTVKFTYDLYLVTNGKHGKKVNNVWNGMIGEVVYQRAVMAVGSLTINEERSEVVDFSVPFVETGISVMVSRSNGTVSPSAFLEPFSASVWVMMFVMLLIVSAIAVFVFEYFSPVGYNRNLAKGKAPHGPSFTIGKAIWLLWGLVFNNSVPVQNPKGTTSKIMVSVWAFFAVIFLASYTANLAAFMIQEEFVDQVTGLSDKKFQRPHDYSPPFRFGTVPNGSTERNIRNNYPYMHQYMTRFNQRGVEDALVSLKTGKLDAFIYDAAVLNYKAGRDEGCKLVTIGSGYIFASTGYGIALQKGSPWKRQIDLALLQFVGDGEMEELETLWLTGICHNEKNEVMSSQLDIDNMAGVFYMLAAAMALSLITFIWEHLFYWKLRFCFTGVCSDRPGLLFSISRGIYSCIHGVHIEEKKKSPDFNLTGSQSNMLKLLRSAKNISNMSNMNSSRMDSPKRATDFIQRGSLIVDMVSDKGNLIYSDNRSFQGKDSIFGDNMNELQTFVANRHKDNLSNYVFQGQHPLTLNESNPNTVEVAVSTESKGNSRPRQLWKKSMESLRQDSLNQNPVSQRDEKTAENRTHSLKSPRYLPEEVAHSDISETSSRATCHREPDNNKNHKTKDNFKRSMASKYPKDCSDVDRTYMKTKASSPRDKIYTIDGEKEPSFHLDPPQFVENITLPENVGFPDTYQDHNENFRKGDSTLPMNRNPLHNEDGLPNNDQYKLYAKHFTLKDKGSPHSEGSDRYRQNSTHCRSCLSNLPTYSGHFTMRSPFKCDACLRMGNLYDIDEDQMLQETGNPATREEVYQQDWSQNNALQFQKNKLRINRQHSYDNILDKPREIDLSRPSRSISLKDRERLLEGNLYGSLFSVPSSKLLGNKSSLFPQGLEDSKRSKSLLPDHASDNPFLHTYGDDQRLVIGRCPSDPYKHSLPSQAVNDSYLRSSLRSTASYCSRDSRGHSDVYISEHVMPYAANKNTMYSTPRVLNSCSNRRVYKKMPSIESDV

[3] = molecular target: T2, Glutamate NMDA receptor; Grin1/Grin2b (Rattus norvegicus, UniProt P35439+Q00960); assay: Inhibition of NMDA response at NR1A/2B receptor expressed in Xenopus oocytes; format: cell-based, Oocyte
Target sequence in this assay (Q00960 whole entry, other chains not shown): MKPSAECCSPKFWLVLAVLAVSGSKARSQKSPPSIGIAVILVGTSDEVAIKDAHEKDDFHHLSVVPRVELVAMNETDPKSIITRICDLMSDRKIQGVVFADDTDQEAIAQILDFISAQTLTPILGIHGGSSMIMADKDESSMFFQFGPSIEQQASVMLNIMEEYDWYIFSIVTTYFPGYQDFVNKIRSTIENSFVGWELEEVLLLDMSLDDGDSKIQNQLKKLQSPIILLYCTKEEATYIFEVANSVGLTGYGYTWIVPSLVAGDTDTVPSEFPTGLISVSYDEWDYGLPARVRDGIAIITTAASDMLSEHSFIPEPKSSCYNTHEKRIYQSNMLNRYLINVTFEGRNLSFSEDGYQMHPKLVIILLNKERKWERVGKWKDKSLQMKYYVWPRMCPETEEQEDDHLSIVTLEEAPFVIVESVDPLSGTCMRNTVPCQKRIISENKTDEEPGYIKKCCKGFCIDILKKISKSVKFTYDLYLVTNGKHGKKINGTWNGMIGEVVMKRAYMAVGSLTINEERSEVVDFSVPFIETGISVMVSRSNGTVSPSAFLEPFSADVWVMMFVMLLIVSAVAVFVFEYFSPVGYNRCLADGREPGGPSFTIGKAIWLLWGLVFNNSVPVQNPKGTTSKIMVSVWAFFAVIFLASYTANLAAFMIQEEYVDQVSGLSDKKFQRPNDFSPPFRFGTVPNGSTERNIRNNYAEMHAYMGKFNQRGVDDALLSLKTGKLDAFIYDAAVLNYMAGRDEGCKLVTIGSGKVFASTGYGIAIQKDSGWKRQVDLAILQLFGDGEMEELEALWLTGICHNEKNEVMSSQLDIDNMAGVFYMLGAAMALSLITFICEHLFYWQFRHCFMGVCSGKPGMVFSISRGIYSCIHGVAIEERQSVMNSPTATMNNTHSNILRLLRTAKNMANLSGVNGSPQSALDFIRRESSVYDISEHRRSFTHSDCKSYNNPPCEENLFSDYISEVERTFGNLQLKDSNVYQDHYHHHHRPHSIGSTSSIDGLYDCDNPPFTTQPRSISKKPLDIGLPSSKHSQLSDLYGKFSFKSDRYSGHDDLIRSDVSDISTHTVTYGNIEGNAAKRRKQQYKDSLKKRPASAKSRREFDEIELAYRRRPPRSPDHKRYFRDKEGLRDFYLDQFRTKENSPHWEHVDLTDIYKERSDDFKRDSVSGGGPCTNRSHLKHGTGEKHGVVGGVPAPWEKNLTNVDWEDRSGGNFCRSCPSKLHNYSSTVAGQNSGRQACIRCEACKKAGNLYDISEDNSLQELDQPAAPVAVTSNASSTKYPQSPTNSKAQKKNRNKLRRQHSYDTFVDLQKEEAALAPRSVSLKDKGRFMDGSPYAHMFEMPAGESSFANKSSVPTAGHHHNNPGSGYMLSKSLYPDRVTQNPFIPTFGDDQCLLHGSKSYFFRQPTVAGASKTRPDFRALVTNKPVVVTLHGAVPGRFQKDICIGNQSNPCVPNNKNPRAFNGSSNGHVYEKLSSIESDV

[4] = molecular target: T1, Glutamate receptor ionotropic, NMDA 2C; assay: The compound was tested in vitro for activity against NR1A/2C sub type of NMDA receptor; design: species or system frog
[5] = molecular target: T2, Glutamate NMDA receptor; Grin1/Grin2b; assay: The compound was tested in vitro for activity against NR1A/2B sub type of NMDA receptor; design: species or system frog

T1 sequence (Q00961 whole entry, one chain of several): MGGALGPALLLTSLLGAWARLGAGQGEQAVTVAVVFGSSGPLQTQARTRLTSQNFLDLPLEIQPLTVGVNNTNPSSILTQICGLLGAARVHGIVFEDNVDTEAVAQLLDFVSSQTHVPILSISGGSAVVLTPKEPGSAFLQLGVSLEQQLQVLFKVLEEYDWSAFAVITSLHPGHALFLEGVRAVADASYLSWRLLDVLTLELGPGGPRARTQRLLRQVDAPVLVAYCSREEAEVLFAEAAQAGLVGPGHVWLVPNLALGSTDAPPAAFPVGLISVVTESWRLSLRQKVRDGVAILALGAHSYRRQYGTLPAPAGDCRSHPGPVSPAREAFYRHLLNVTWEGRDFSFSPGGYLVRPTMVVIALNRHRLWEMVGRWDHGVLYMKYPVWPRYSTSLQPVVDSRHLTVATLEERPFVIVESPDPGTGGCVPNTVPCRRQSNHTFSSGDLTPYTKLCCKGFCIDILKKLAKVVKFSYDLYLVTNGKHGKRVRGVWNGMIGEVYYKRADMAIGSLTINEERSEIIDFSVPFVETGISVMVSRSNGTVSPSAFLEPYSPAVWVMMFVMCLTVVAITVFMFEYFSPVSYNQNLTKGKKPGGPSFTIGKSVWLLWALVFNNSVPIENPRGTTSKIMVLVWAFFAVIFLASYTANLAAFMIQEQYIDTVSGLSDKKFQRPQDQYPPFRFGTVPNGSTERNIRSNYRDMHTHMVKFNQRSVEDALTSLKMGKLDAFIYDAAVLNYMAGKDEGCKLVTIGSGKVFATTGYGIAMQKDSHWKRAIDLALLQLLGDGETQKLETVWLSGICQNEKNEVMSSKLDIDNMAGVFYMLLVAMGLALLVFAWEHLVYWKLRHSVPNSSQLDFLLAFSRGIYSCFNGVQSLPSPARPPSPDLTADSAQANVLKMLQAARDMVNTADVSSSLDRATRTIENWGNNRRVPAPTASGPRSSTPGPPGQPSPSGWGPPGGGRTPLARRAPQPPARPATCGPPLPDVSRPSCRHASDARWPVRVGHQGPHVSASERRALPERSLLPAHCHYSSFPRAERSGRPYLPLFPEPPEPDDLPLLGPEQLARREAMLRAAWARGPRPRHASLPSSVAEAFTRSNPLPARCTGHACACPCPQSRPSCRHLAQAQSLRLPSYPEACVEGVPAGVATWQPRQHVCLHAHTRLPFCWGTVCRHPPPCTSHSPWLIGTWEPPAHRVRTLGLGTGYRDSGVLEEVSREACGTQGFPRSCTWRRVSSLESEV

Row | Compound | IC50 [1] | minimal effective dose (Rattus norvegicus) | IC50 [2] | IC50 [3] | IC50 [4] | IC50 [5]
1 | Cc1ccc(CC2CCN(CCC#Cc3c[nH]cn3)CC2)cc1 | 38 µM | 10 mg/kg | 16 µM | 20 nM |  | 
2 | OC1(c2ccccc2)CCN(CCC#Cc2c[nH]cn2)CC1 | 36 µM |  | 8.4 µM | 3500 nM |  | 
3 | Clc1ccc(CC2CCN(CCC#Cc3cnc[nH]3)CC2)cc1 | 80 µM | 10 mg/kg | 26 µM | 28 nM |  | 
4 | C(#Cc1cn[nH]c1)CN1CCC(Cc2ccccc2)CC1 |  |  | > 100 µM |  | > 100 µM | 820 nM
5 | C(#Cc1cnc[nH]1)CCN1CCC(Cc2ccccc2)CC1 | 70 µM | 3 mg/kg | 53 µM | 37 nM |  | 
6 | Fc1ccc(CC2CCN(CCC#Cc3c[nH]cn3)CC2)cc1 | > 100 µM | > 10 mg/kg | 40 µM | 50 nM |  | 
7 | C(#Cc1cn[nH]c1)CCN1CCC(Cc2ccccc2)CC1 | > 100 µM | 30 mg/kg | 67 µM | 74 nM |  | 
8 | C(#Cc1cc[nH]c1)CCN1CCC(Cc2ccccc2)CC1 | > 100 µM | 30 mg/kg | 51 µM | 190 nM |  | 
9 | C(#Cc1cnc[nH]1)CN1CCC(Cc2ccccc2)CC1 | 34 µM | 10 mg/kg | 38 µM | 120 nM |  | 
10 | OC1(Cc2ccccc2)CCN(CCC#Cc2c[nH]cn2)CC1 | > 100 µM | > 10 mg/kg | > 100 µM | 220 nM |  | 
11 | C(#Cc1cnc[nH]1)CCN1CCC(c2ccccc2)CC1 | 5 µM |  | 1.4 µM | 810 nM |  | 
12 | C(#Cc1cc[nH]c1)CN1CCC(Cc2ccccc2)CC1 | 56 µM |  | 53 µM | 1100 nM |  | 

— ChEMBL document CHEMBL1131994, “Discovery of subtype-selective NMDA receptor ligands: 4-benzyl-1-piperidinylalkynylpyrroles, pyrazoles and imidazoles as NR1A/2B antagonists” (Bioorg Med Chem Lett, 1999)
